Organism: Rattus norvegicus
Experiment: Open TG-GATES - Regimen: Single
Assay type: toxicity, organism-based, Sprague-Dawley
Design: regimen Single, gender Male, age 6 weeks
Conditions: in vivo, po, route gavage; for APTT / Bas / Eos / Fbg / Hb / Ht / Lym / MCH / MCHC / MCV / Mono / Neu / PT / Plat / RBC / Ret / WBC: tissue Blood; for KIDNEY_L / KIDNEY_R / KIDNEY_TOTAL: tissue Kidney; for LIVER: tissue Liver; for A/G / ALP / ALT / AST / BUN / CRE / Ca / Cl / DBIL / GLC / IP / K / LDH / Na / PL / RALB / TBIL / TC / TG / TP / gamma-GTP: tissue Plasma
[1] = 30 mg/kg, 3 h, dose level Middle
[2] = 30 mg/kg, 6 h, dose level Middle
[3] = 30 mg/kg, 9 h, dose level Middle
[4] = 30 mg/kg, 24 h, dose level Middle
[5] = 100 mg/kg, 3 h, dose level High
[6] = 100 mg/kg, 6 h, dose level High
[7] = 100 mg/kg, 9 h, dose level High
[8] = 100 mg/kg, 24 h, dose level High

OCCOCCN1CCN(C(c2ccccc2)c2ccc(Cl)cc2)CC1 (centres undefined) [HYDROXYZINE]
TERMINAL_BW [1]: 193.6 g
APTT [1]: 15.6 s
Bas [1]: 0.2%
Eos [1]: 0.8%
Fbg [1]: 288.4 mg/dL
Hb [1]: 13 g/dL
Ht [1]: 40.6%
Lym [1]: 75.4%
MCH [1]: 21.5 pg
MCHC [1]: 31.9%
MCV [1]: 67.3 fL
Mono [1]: 3.4%
Neu [1]: 19.6%
PT [1]: 15.6 s
Plat [1]: 107 x10_4/uL
RBC [1]: 604.4 x10_4/ul
Ret [1]: 8.9%
WBC [1]: 83.3 x10_2/uL
KIDNEY_L [1]: 0.9 g
KIDNEY_R [1]: 0.9 g
KIDNEY_TOTAL [1]: 1.8 g
LIVER [1]: 8.7 g
A/G [1]: 0.8
ALP [1]: 1908.4 IU/L
ALT [1]: 42.4 IU/L
AST [1]: 74.8 IU/L
BUN [1]: 9.2 mg/dL
CRE [1]: 0.2 mg/dL
Ca [1]: 10.9 mg/dL
Cl [1]: 106.2 meq/L
DBIL [1]: 0.012 mg/dL
GLC [1]: 173.4 mg/dL
IP [1]: 9.1 mg/dL
K [1]: 4.4 meq/L
LDH [1]: 76 IU/L
Na [1]: 142 meq/L
PL [1]: 140 mg/dL
RALB [1]: 2.5 g/dL
TBIL [1]: 0.058 mg/dL
TC [1]: 78.6 mg/dL
TG [1]: 33.2 mg/dL
TP [1]: 5.4 g/dL
gamma-GTP [1]: 1 IU/L
TERMINAL_BW [2]: 192 g
APTT [2]: 15.5 s
Bas [2]: 0.2%
Eos [2]: 0.6%
Fbg [2]: 289.4 mg/dL
Hb [2]: 12.9 g/dL
Ht [2]: 39.9%
Lym [2]: 78.8%
MCH [2]: 21.4 pg
MCHC [2]: 32.2%
MCV [2]: 66.4 fL
Mono [2]: 3%
Neu [2]: 16.8%
PT [2]: 15.1 s
Plat [2]: 115.9 x10_4/uL
RBC [2]: 601.6 x10_4/ul
Ret [2]: 8.8%
WBC [2]: 67.5 x10_2/uL
KIDNEY_L [2]: 0.9 g
KIDNEY_R [2]: 0.9 g
KIDNEY_TOTAL [2]: 1.8 g
LIVER [2]: 8.4 g
A/G [2]: 0.9
ALP [2]: 1397.6 IU/L
ALT [2]: 38.8 IU/L
AST [2]: 73.6 IU/L
BUN [2]: 8.4 mg/dL
CRE [2]: 0.2 mg/dL
Ca [2]: 10.9 mg/dL
Cl [2]: 105.8 meq/L
DBIL [2]: 0.01 mg/dL
GLC [2]: 180.4 mg/dL
IP [2]: 10.5 mg/dL
K [2]: 4.3 meq/L
LDH [2]: 69.2 IU/L
Na [2]: 142.6 meq/L
PL [2]: 141.8 mg/dL
RALB [2]: 2.5 g/dL
TBIL [2]: 0.064 mg/dL
TC [2]: 83.2 mg/dL
TG [2]: 40.6 mg/dL
TP [2]: 5.5 g/dL
gamma-GTP [2]: 0.8 IU/L
TERMINAL_BW [3]: 190.8 g
APTT [3]: 15.9 s
Bas [3]: 0%
Eos [3]: 0.8%
Fbg [3]: 281.8 mg/dL
Hb [3]: 12.9 g/dL
Ht [3]: 40%
Lym [3]: 79%
MCH [3]: 21.7 pg
MCHC [3]: 32.3%
MCV [3]: 67.1 fL
Mono [3]: 2.6%
Neu [3]: 17.2%
PT [3]: 15.4 s
Plat [3]: 104.8 x10_4/uL
RBC [3]: 595.6 x10_4/ul
Ret [3]: 8.8%
WBC [3]: 60.3 x10_2/uL
KIDNEY_L [3]: 0.9 g
KIDNEY_R [3]: 0.9 g
KIDNEY_TOTAL [3]: 1.7 g
LIVER [3]: 8.2 g
A/G [3]: 0.9
ALP [3]: 1266.8 IU/L
ALT [3]: 38 IU/L
AST [3]: 70.2 IU/L
BUN [3]: 9 mg/dL
CRE [3]: 0.2 mg/dL
Ca [3]: 10.7 mg/dL
Cl [3]: 107 meq/L
DBIL [3]: 0.01 mg/dL
GLC [3]: 171.6 mg/dL
IP [3]: 10.2 mg/dL
K [3]: 4 meq/L
LDH [3]: 83.6 IU/L
Na [3]: 142.8 meq/L
PL [3]: 127.8 mg/dL
RALB [3]: 2.5 g/dL
TBIL [3]: 0.06 mg/dL
TC [3]: 67.6 mg/dL
TG [3]: 43 mg/dL
TP [3]: 5.4 g/dL
gamma-GTP [3]: 1 IU/L
TERMINAL_BW [4]: 210 g
APTT [4]: 16.7 s
Bas [4]: 0.2%
Eos [4]: 0.8%
Fbg [4]: 268 mg/dL
Hb [4]: 12.7 g/dL
Ht [4]: 39.4%
Lym [4]: 74.6%
MCH [4]: 21.3 pg
MCHC [4]: 32.3%
MCV [4]: 65.9 fL
Mono [4]: 3.8%
Neu [4]: 20.4%
PT [4]: 16.1 s
Plat [4]: 122 x10_4/uL
RBC [4]: 599.2 x10_4/ul
Ret [4]: 8%
WBC [4]: 75.2 x10_2/uL
KIDNEY_L [4]: 0.9 g
KIDNEY_R [4]: 0.9 g
KIDNEY_TOTAL [4]: 1.8 g
LIVER [4]: 10.1 g
A/G [4]: 0.8
ALP [4]: 1659 IU/L
ALT [4]: 45.8 IU/L
AST [4]: 68.6 IU/L
BUN [4]: 14 mg/dL
CRE [4]: 0.2 mg/dL
Ca [4]: 11.2 mg/dL
Cl [4]: 106.6 meq/L
DBIL [4]: 0.018 mg/dL
GLC [4]: 188.2 mg/dL
IP [4]: 7.9 mg/dL
K [4]: 4.1 meq/L
LDH [4]: 75.2 IU/L
Na [4]: 142.8 meq/L
PL [4]: 153.4 mg/dL
RALB [4]: 2.6 g/dL
TBIL [4]: 0.054 mg/dL
TC [4]: 79.2 mg/dL
TG [4]: 82 mg/dL
TP [4]: 5.6 g/dL
gamma-GTP [4]: 1 IU/L
TERMINAL_BW [5]: 192.6 g
APTT [5]: 16.4 s
Bas [5]: 0.2%
Eos [5]: 0.8%
Fbg [5]: 276.2 mg/dL
Hb [5]: 12.4 g/dL
Ht [5]: 38.5%
Lym [5]: 79.6%
MCH [5]: 21.5 pg
MCHC [5]: 32.3%
MCV [5]: 66.5 fL
Mono [5]: 2.8%
Neu [5]: 16%
PT [5]: 16 s
Plat [5]: 107.8 x10_4/uL
RBC [5]: 579.6 x10_4/ul
Ret [5]: 9.2%
WBC [5]: 66.5 x10_2/uL
KIDNEY_L [5]: 0.9 g
KIDNEY_R [5]: 0.9 g
KIDNEY_TOTAL [5]: 1.8 g
LIVER [5]: 8.5 g
A/G [5]: 0.9
ALP [5]: 1704.8 IU/L
ALT [5]: 45.4 IU/L
AST [5]: 78 IU/L
BUN [5]: 10.2 mg/dL
CRE [5]: 0.2 mg/dL
Ca [5]: 10.7 mg/dL
Cl [5]: 105.8 meq/L
DBIL [5]: 0.008 mg/dL
GLC [5]: 167.2 mg/dL
IP [5]: 9.5 mg/dL
K [5]: 4.4 meq/L
LDH [5]: 107.6 IU/L
Na [5]: 142.4 meq/L
PL [5]: 132.4 mg/dL
RALB [5]: 2.5 g/dL
TBIL [5]: 0.048 mg/dL
TC [5]: 65.8 mg/dL
TG [5]: 40 mg/dL
TP [5]: 5.4 g/dL
gamma-GTP [5]: 1 IU/L
TERMINAL_BW [6]: 190.6 g
APTT [6]: 16.5 s
Bas [6]: 0%
Eos [6]: 0.8%
Fbg [6]: 260.2 mg/dL
Hb [6]: 12.8 g/dL
Ht [6]: 39.9%
Lym [6]: 80.4%
MCH [6]: 21.2 pg
MCHC [6]: 32.1%
MCV [6]: 65.8 fL
Mono [6]: 2.6%
Neu [6]: 15.6%
PT [6]: 16 s
Plat [6]: 118.2 x10_4/uL
RBC [6]: 606.4 x10_4/ul
Ret [6]: 8.5%
WBC [6]: 87.3 x10_2/uL
KIDNEY_L [6]: 0.9 g
KIDNEY_R [6]: 0.9 g
KIDNEY_TOTAL [6]: 1.8 g
LIVER [6]: 7.9 g
A/G [6]: 0.8
ALP [6]: 1674.2 IU/L
ALT [6]: 39.8 IU/L
AST [6]: 78.2 IU/L
BUN [6]: 8.6 mg/dL
CRE [6]: 0.2 mg/dL
Ca [6]: 10.7 mg/dL
Cl [6]: 106.8 meq/L
DBIL [6]: 0.01 mg/dL
GLC [6]: 180.8 mg/dL
IP [6]: 9.7 mg/dL
K [6]: 4.2 meq/L
LDH [6]: 64.2 IU/L
Na [6]: 141.8 meq/L
PL [6]: 121.8 mg/dL
RALB [6]: 2.4 g/dL
TBIL [6]: 0.062 mg/dL
TC [6]: 63.8 mg/dL
TG [6]: 28 mg/dL
TP [6]: 5.3 g/dL
gamma-GTP [6]: 1 IU/L
TERMINAL_BW [7]: 190.3 g
APTT [7]: 15.9 s
Bas [7]: 0.2%
Eos [7]: 0.8%
Fbg [7]: 288.6 mg/dL
Hb [7]: 13 g/dL
Ht [7]: 40.5%
Lym [7]: 78.8%
MCH [7]: 21.5 pg
MCHC [7]: 32%
MCV [7]: 67.2 fL
Mono [7]: 2.8%
Neu [7]: 16.6%
PT [7]: 15.6 s
Plat [7]: 116.3 x10_4/uL
RBC [7]: 603.4 x10_4/ul
Ret [7]: 8.6%
WBC [7]: 75.7 x10_2/uL
KIDNEY_L [7]: 0.9 g
KIDNEY_R [7]: 0.9 g
KIDNEY_TOTAL [7]: 1.8 g
LIVER [7]: 7.7 g
A/G [7]: 0.9
ALP [7]: 1671.6 IU/L
ALT [7]: 36.2 IU/L
AST [7]: 76.6 IU/L
BUN [7]: 8.2 mg/dL
CRE [7]: 0.2 mg/dL
Ca [7]: 10.6 mg/dL
Cl [7]: 106.6 meq/L
DBIL [7]: 0.016 mg/dL
GLC [7]: 182.4 mg/dL
IP [7]: 10.6 mg/dL
K [7]: 4.3 meq/L
LDH [7]: 63 IU/L
Na [7]: 142 meq/L
PL [7]: 124.4 mg/dL
RALB [7]: 2.5 g/dL
TBIL [7]: 0.066 mg/dL
TC [7]: 64.6 mg/dL
TG [7]: 34.2 mg/dL
TP [7]: 5.4 g/dL
gamma-GTP [7]: 1 IU/L
TERMINAL_BW [8]: 198.7 g
APTT [8]: 16.8 s
Bas [8]: 0%
Eos [8]: 0.8%
Fbg [8]: 253.6 mg/dL
Hb [8]: 13.3 g/dL
Ht [8]: 40.4%
Lym [8]: 78.4%
MCH [8]: 22.2 pg
MCHC [8]: 32.9%
MCV [8]: 67.4 fL
Mono [8]: 3.6%
Neu [8]: 16.4%
PT [8]: 16.8 s
Plat [8]: 123.7 x10_4/uL
RBC [8]: 599.6 x10_4/ul
Ret [8]: 7.7%
WBC [8]: 74.7 x10_2/uL
KIDNEY_L [8]: 0.9 g
KIDNEY_R [8]: 0.9 g
KIDNEY_TOTAL [8]: 1.9 g
LIVER [8]: 9 g
A/G [8]: 0.8
ALP [8]: 1880 IU/L
ALT [8]: 45.6 IU/L
AST [8]: 75.8 IU/L
BUN [8]: 15.6 mg/dL
CRE [8]: 0.2 mg/dL
Ca [8]: 11.1 mg/dL
Cl [8]: 107 meq/L
DBIL [8]: 0.016 mg/dL
GLC [8]: 181.6 mg/dL
IP [8]: 7.7 mg/dL
K [8]: 4.2 meq/L
LDH [8]: 76 IU/L
Na [8]: 141.4 meq/L
PL [8]: 135 mg/dL
RALB [8]: 2.6 g/dL
TBIL [8]: 0.06 mg/dL
TC [8]: 75.4 mg/dL
TG [8]: 52.2 mg/dL
TP [8]: 5.6 g/dL
gamma-GTP [8]: 0.6 IU/L
